The subject of experiment [1] is PLX4720-resistant MITF^acq^_^gain cells. Briefly: long-term viability assay, crystal violet staining. The conditions noted are these: crystal violet after 6 days. Format: cell-based, human. As for the experimental part:
FIG. 5: Loss of MITF confers cross-resistance and increases invasiveness of resistant cells. Two PLX4270-resistant cells lines (Me1888 and SkMe128) and their treatment-naïve counterparts were treated with either ERKi, MEKi, the BRAFinhibitor Dabrafenib or a combination of the latter and stained with crystal violet after 6 days of treatment.
(§1) Cell line sources: Melanoma cell lines and HEK293T were cultured in DMEM/9% FBS (Sigma), 2 mM glutamine, 100 U/mL penicillin and 0.1 mg/mL streptomycin (all Gibco) under standard conditions. HEK293T cells were used for virus production for MITF-overexpression and shRNAs. Briefly HEK293T cells were transfected with the plasmid of interest and the helper plasmids (pMDLglpRRE, pHCMV-G, and pRSVrev). Viral supernatant was either fresh frozen or subsequently used for infection. Infected melanoma cells were positively selected with puromycin (Sigma). For dose response curve and colony formation assay cells were plated in a line-specific manner. Equal concentration of inhibitors was added one day after set up. For short-term viability assay (dose response curve) cells were plated in a 96-well format and drugs diluted with the HP D300 Digital Dispenser (Tecan). […] Two hours later luminescence was measured by the infinite M200 microplate reader (Tecan, Giessen, Germany). […]

Experiment [2] relates to MITF^endo^_^hi and MITF^endo^_^lo cell lines. In words: dose response curve (short-term viability assay). Format: cell-based, human. The conditions noted are these: four MITF^endo^_^lo versus four MITF^endo^_^hi cell lines.
Experimental: Cell line sources: Melanoma cell lines and HEK293T were cultured in DMEM/9% FBS (Sigma), 2 mM glutamine, 100 U/mL penicillin and 0.1 mg/mL streptomycin (all Gibco) under standard conditions. […] For dose response curve and colony formation assay cells were plated in a line-specific manner. Equal concentration of inhibitors was added one day after set up. For short-term viability assay (dose response curve) cells were plated in a 96-well format and drugs diluted with the HP D300 Digital Dispenser (Tecan). After three to five days incubation old medium was replaced by a dilution of CellTiter Blue reagent or CellTiter-Glo Luminescent Cell Viability Assay (Promega, Madison, Wiss.) in medium. Two hours later luminescence was measured by the infinite M200 microplate reader (Tecan, Giessen, Germany).
(§2) We then determined the spectrum of drug sensitivity among the MITF^endo^_^lo and MITF^endo^_^hi cells.
The subject of experiment [3] is receptor tyrosine kinases (RTKs). In words: phospho-RTK array. Format: cell-based, human. The conditions noted are these: 5 μM, two days.
Experimental: Phospho-RTK assay was performed using the human Phospho-RTK Array from RD Systems (Minneapolis, USA). All steps were performed according to the manufactures protocol.
Encouraged by these findings, we compared the phosphorylation status of RTKs in one MITF^endo^_^lo and one MITF^endo^_^lo cell line.
Another experiment deals with MITF. In words: MITF expression during acquisition of resistance. The experiment is classed as cell-based, human. The conditions noted are these: short-term exposure, M229 and M238 MITF^acq^_^loss melanoma cell lines. As for the experimental part: RNA was isolated using Trizol (Ambion), following standard protocol. Reverse transcription was performed using a kit from Invitrogen. Primers were designed using Primer Express software. QRT-PCR was performed with SYBR green master mix (Applied Biosystems) on a StepOnePlus Real-Time PCR system (Applied Biosystems, Warrington, UK). RNA levels were normalized against beta-actin or RPL13. Following primers were used: To study the dynamics of MITF downregulation as a function of the acquisition of a resistant phenotype, two independent MITF^acq^_^loss melanoma cell lines (M229 and […]; {Shi:2014fm}) were permanently exposed to 1 μM vemurafenib and monitored in time.

For the next experiment, the system named is ERK phosphorylation. In words: immunoblot of ERK phosphorylation. The experiment is classed as cell-based, human. Particulars: 5 μM; irrespective of MITF status.
Experiment [4] concerns MITF^endo^_^lo and MITF^endo^_^hi BRAF mutant melanoma cells. In words: cell proliferation assay and PARP cleavage. Format: cell-based, human. Particulars: 5 μM, six days; MITF^endo^_^lo versus MITF^endo^_^hi cells.
Experimental: FIG. 7: BRAFV600E mutant melanoma cells were plated in low density and treated with 5 μM PLX4270 for 6 days or left untreated and stained with crystal violet (left panel).
Cell line sources: Melanoma cell lines and HEK293T were cultured in DMEM/9% FBS (Sigma), 2 mM glutamine, 100 U/mL penicillin and 0.1 mg/mL streptomycin (all Gibco) under standard conditions. […] For dose response curve and colony formation assay cells were plated in a line-specific manner. Equal concentration of inhibitors was added one day after set up. For short-term viability assay (dose response curve) cells were plated in a 96-well format and drugs diluted with the HP D300 Digital Dispenser (Tecan). After three to five days incubation old medium was replaced by a dilution of CellTiter Blue reagent or CellTiter-Glo Luminescent Cell Viability Assay (Promega, Madison, Wiss.) in medium. Two hours later luminescence was measured by the infinite M200 microplate reader (Tecan, Giessen, Germany). Long-term viability assays were performed in 6-well or 12-well format. Inhibitors solutions were replaced every two to three days and plates stained with crystal violet after six to nine days of treatment (as indicated). For immunoblot analysis cells were treated on 10 cm dishes and snap-frozen after harvesting.
as §2
The test system of experiment [5] is AXL-expressing PLX4270-resistant melanoma cells. Briefly: long-term viability assay, crystal violet staining. Format: cell-based, human. The conditions noted are these: 0.3 μM AXL inhibitor, nine days, in two out of three resistant cell lines. As for the experimental part: FIG. 12: AXL-expressing PLX4270-resistant melanoma cells were exposed to 0.3 μM AXL inhibitor for nine days and the remaining cells stained with crystal violet.
as §1
Next, we determined the expression pattern of these RTKs in acquired resistance, particularly in PLX4720-sensitive cells and their resistant counterparts. […]

Experiment [6] deals with BRAFV600E mutant melanoma cell line (04.07). In words: sensitivity of screening cell line to ERK inhibitor. Format: cell-based, human. Particulars: not all cells are killed even at high concentration. On the procedure: The insertional mutagenesis screen was performed as described previously (Lu et al. Proc Natl Acad Sci U S A. (2009) 22;106(38):16339-44). Briefly, an intermediate sensitive melanoma cell line of low passage (Me104.07) was infected separately with the three different VBIM constructs (SD1-3). Two days after infection cells were exposed to 1 μM […] for three weeks till single colonies had formed. These were picked and separately cultured. For identification of insertions Splinkerette-PCR was used according to the published protocol and Sanger sequencing applied on amplified products.
To identify proteins conferring resistance to MAPK pathway inhibition by the recently available ERK inhibitor 5CH772984, we performed a lentiviral insertional mutagenesis screen using the VBIM system. Carrying a GFP-sequence and a strong CMV promoter, the virus integrates in the genome, resulting in an activation of downstream sequences that leads to overexpression of a FLAG-tagged protein. Due to […] excision the insertion can be excised by addition of 4-Hydroxytamoxifen (4-OHT). […] We infected this cell line with the three versions of the insertional mutagenesis vector (SD1-3). After three weeks of culturing in the presence of 1 μM SCH772984, we were able to pick drug-resistant clones and individually expanded them. […]

Experiment [7] concerns BRAF and BRAF/MEK inhibitor-resistant cells. The conditions noted are these: Morris et al. 2013; cited from earlier work.

These results are taken from patent US20170027940A1, “METHOD FOR TREATING CANCER” (STICHTING HET NEDERLANDS KANKER INSTITUUT, priority 2014, published 2017).

Experimental for ERK phosphorylation: For immunoblot analysis cells were treated on 10 cm dishes and snap-frozen after harvesting.
Cells were lysed in RIPA buffer and protein concentration measured with Bio-Rad protein assay. Immunoblots were performed according to standard protocols on 4 to 12% bis-Tris precast or 3-8% tris-acetate gels (NuPage). […] MAP kinase p44/42 thy202/Tyr204 (9106) and PDGFRbeta (31695) from Cell Signaling.

In the case of `CC(C)(C)c1nc(-c2cccc(NS(=O)(=O)c3c(F)cccc3F)c2F)c(-c2ccnc(N)n2)s1` [Dabrafenib], in [1], the “sensitivity in long-term experiment” value is “resistant”.
`CC(=O)Nc1cccc(-n2c(=O)n(C3CC3)c(=O)c3c(Nc4ccc(I)cc4F)n(C)c(=O)c(C)c32)c1` [MEKi]: the “increase in resistance, as measured from the IC50 values” in [2] is “up to 1000 fold”.
On to `CCCS(=O)(=O)Nc1ccc(F)c(C(=O)c2c[nH]c3ncc(Cl)cc23)c1F` [PLX4720], for which the “activation of RTKs” value in experiment [3] (MITF^endo^_^hi cells) is reported as “only a minor activation”; in experiment [3] (MITF^endo^_^lo cells), “further increased”. Also, the MITF expression entry in the experiment with MITF is listed as “sharply dropped”. The ERK phosphorylation result with ERK phosphorylation is “diminished”. In addition, in experiment [4], the “survival of cells upon exposure” value is recorded as “clear survival benefit”.
Regarding `Nc1nc(Nc2ccc3c(c2)CCC(N2CCCC2)CC3)nn1-c1cc2c(nn1)-c1ccccc1CCC2` (stereo not shown) [R428], in [5], the “proliferation/viability upon drug treatment” value was “strong decrease in proliferation/viability”.
`O=C(Nc1ccc2[nH]nc(-c3ccncc3)c2c1)[C@@H]1CCN(CC(=O)N2CCN(c3ccc(-c4ncccn4)cc3)CC2)C1` [SCH772984]: the “sensitivity to the inhibitor” value in [6] is “intermediately sensitive”. Moreover, the proliferation result in experiment [7] is “effectively block proliferation”.
